Read-outs that look alike come from different tables or passages of the source. Ends that are not written are not given here.
How the values were obtained:
[1] = biological target: T1, Skp2-cyclin A interaction (Homo sapiens, UniProt P20248); experiment: GST pull-down, blocking of Skp2-cyclin A interaction by peptides; type: binding; conditions: GST-Skp2N, myc-cyclin A/Cdk2 transfected 293T cell extracts
T1 construct: expressed in transfected cells; host or cells: 293T (cyclin A/Cdk2)
Method: (§1) GST pull down, p27 ubiquitylation assay, and cyclin A kinase assay. GST fusion proteins were purified on GSH-beads (Amersham), which were then incubated with transfected cell extracts for 1 hour in 4° C. with rocking. The beads were washed three times with lysis buffer (25 mM Hepes pH 7.6, 100 mM KCl, 0.1 mM EDTA, 10 mM MgCl2, 0.1% NP-40, 10% glycerol, 1 mM DTT) before analysis by SDS-PAGE and Western blotting.
(§2) Skp2-cyclin A interaction and p27-cyclin A interaction can be blocked by distinct peptides. An important aspect of the RxL-1-IP interaction is that it can be blocked by a short RxL peptide (Adams et al., 1996). If the Skp2-cyclin A/Cdk2 interaction and the p27-cyclin A/Cdk2 interaction are mediated by different sequences on both sides of the interaction, as shown above, it can be predicted that the RxL peptide should not block Skp2-cyclin A interaction. […] Peptide concentrations required for their respective blocking activities were similar for RxL and 4060 peptides.

[2] = biological target: T2, cyclin A/Cdk2 (Homo sapiens, UniProt P20248+P24941); experiment: IP-kinase assay with myc-cyclin A/Cdk2 transfected 293T cell extract; type: biochemical; conditions: increasing amounts of peptide
T2 construct: made in house; host or cells: insect cells (baculovirus)
Method: In panel A, an IP-kinase assay was performed with myc-cyclin A/Cdk2 transfected 293T cell extract in the presence of increasing amounts of RxL or 4060 peptides. Phosphorylation of GST-Skp2N is visible in this gel. […] As indicated, increasing amounts of the 4060 or 4060AAAA peptides were included in the reactions. Phosphorylation of Rb-C was quantified and plotted as shown.
Cyclin A/Cdk2 kinase assays were performed as described previously (Ji et al., 2004). Both immuno-purified myc-cyclin A/Cdk2 on beads and GST-purified and eluted GST-cyclin A/Cdk2 (baculovirus vectors for GST-cyclin A and Cdk2 were provided by Brian Dynlacht) were used. The amounts of purified proteins were determined by comparing them with known amounts of standard proteins in Coomassie blue stained gels. Phosphorylation of GST-Rb-C was quantified with the ImageQuant software. The Ki of various proteins was determined by non-linear least squares analysis. […] Actual amounts of proteins in 7.5×10^4 HeLa cells were then determined (for example, the amounts of p27, Skp2, and cyclin A in 7.5×10^4 HeLa cells were determined to be about 0.1, 0.2, and 0.1 pmoles, respectively, at 14 hours post-replating; and about 0.01, 0.1, and 1.0 pmoles, respectively, at 19 hours post-replating). […]

[3] = biological target: T3, p27-cyclin A interaction (Homo sapiens, UniProt P20248); experiment: GST pull-down, blocking of p27-cyclin A interaction; type: binding; conditions: GST-p27, myc-cyclin A/Cdk2 transfected 293T cell extracts
T3 construct: expressed in transfected cells; host or cells: 293T (cyclin A/Cdk2)
Method: as §1, §2
Skp2 competes with p27/p21, but not E2F1, for binding to cyclin A. Whether the apparently distinct Skp2-cyclin A interaction and p27-cyclin A interaction are competitive against each other was next evaluated. […] Whether the competition between Skp2 and p27/p21 for cyclin A binding could be observed in vivo with endogenous proteins under physiological conditions was next determined. […]

[4] = test system: human diploid fibroblasts WI-38; experiment: Cell survival MTS assay, WI-38; type: cell-based; conditions: 120 μM, 24 hours
Method: In comparison, both TAT-Umt and TAT-4060 inhibited cyclin A/Cdk2 kinase activity in vitro at peptide concentrations of 100 μM (FIG. 11B). It is currently unknown how peptide concentrations in the culture media translate into intro-cellular peptide concentrations.
(§3) Cell proliferation and survival assays. For the cell proliferation assay shown in FIG. 10D, 1×10^4 cells were plated in each well of 24 well plates and allowed to grow for a course of four days in the presence of 10% FBS. Cell numbers were counted every day from triplet wells. For cell survival assays in FIGS. 13, 14 and 15, 1×10^3 cells were plated in each well of 96 well plates and allowed to adhere overnight in the presence of 10% FBS. The cells were washed once with Opti-MEM (GIBCO) followed by incubation with different concentrations of peptides in Opti-MEM for 24 hours in triplicate. MTS assay was then performed following manufacturer's protocol (Promega).

[5] = biological target: T2, cyclin A/Cdk2; experiment: In vitro cyclin A/Cdk2 kinase assay with purified proteins (GST-Rb-C substrate); type: biochemical
Method: Cyclin A/Cdk2 kinase assays were performed as described previously (Ji et al., 2004). Both immuno-purified myc-cyclin A/Cdk2 on beads and GST-purified and eluted GST-cyclin A/Cdk2 (baculovirus vectors for GST-cyclin A and Cdk2 were provided by Brian Dynlacht) were used. The amounts of purified proteins were determined by comparing them with known amounts of standard proteins in Coomassie blue stained gels. Phosphorylation of GST-Rb-C was quantified with the ImageQuant software. The Ki of various proteins was determined by non-linear least squares analysis. To determine the amounts of various proteins in synchronized HeLa cells, extracts representing 7.5×10^4 HeLa cells were resolved with known amounts of purified proteins and compared in the same Western blots. Actual amounts of proteins in 7.5×10^4 HeLa cells were then determined (for example, the amounts of p27, Skp2, and cyclin A in 7.5×10^4 HeLa cells were determined to be about 0.1, 0.2, and 0.1 pmoles, respectively, at 14 hours post-replating; and about 0.01, 0.1, and 1.0 pmoles, respectively, at 19 hours post-replating).
For kinase reactions, insect cell-produced and purified GST-cyclin A/Cdk2 was used at a concentration of ˜3 nM, which was the lowest concentration that yielded readily detectible phosphorylation of GST-Rb-C here. Purified p27, GST-Skp2, and Skp2N were titrated into the kinase reaction over a wide range of concentrations (FIGS. 7A, B, and C). Phosphorylation of Rb-C was measured and plotted, and the Ki of these various proteins were determined by non-linear least squares analysis (FIG. 7F).
Since Skp2 competes with p27 for binding to cyclin A and Skp2's Ki is about 100-fold higher than p27's Ki, it can be reasoned that, at concentrations well below its Ki, Skp2 might be able to protect cyclin A/Cdk2 from inhibition by p27. To test this hypothesis, the same cyclin A/Cdk2 kinase assay was carried out to determine the inhibitory activity of p27 in the presence of 80 nM of Skp2N.
It was then determined whether the 4060 peptide could prevent Skp2N from protecting cyclin A/Cdk2 from inhibition by p27. […] When 80 nM of Skp2N was included, 5 nM of p27 lost its ability to inhibit the kinase activity (lane 3). […] These findings indicate that the Skp2-cyclin A interaction is also a potential target to inhibit cyclin A kinase activity in tumor cells, particularly those overexpressing Skp2.
To test this prediction, various peptides were added to an in vitro kinase reaction with purified cyclin A/Cdk2 (˜3 nM concentration). An E2F1-derived RxL peptide, LDL peptide, was used for comparison since it could inhibit cyclin A/Cdk2 kinase activity (Sun et al., 2006, and see next section). Since a TAT sequence was later added to these peptides for trans-membrane delivery (see next section), two versions of each peptide (without TAT and with TAT) was used in these kinase assays. These two versions of peptides yielded identical results and therefore only presented results with one version of the peptides.
The effects of the 4060 peptide on cyclin A/Cdk2 kinase activity in the presence of Skp2 and p27 were then determined.

[6] = test system: HeLa cells; experiment: Cell survival MTS assay, HeLa; type: cell-based, human; conditions: high levels of Skp2
Source text: IC50 of the 4060 peptide positively correlates with Skp2 protein abundance in cancer cells. Skp2 is frequently overexpressed at various levels in various cancer cells. If TAT-4060 kills cancer cells by disrupting Skp2-cyclin A interaction, higher peptide concentrations should be needed to kill cancer cells with higher levels of Skp2. In comparison, since TAT-LDL is believed to kill cancer cells by blocking access of cyclin A to E2F1, there need not be a direct correlation between effective TAT-LDL concentrations and cellular Skp2 protein levels. To test this prediction, Skp2 protein levels and IC50 of both TAT-4060 and TAT-LDL was determined for the panel of four cancer cell lines.
as §3

[7] = test system: cyclin A-associated kinase activity; experiment: IP-kinase assay of anti-cyclin A and anti-Cdk2 immune complexes from peptide-treated U2OS cells; type: cell-based, human; conditions: 50 μM peptide, twelve hours, compared with TAT-4060AAAA or TAT-Umt
Method: (§4) FIG. 12 is photographs of western blots and kinase assays and graphs showing the effects of trans-membrane delivery of the 4060 peptide. In Panel A, U2OS cells were treated with 50 μM of indicated peptide for twelve hours. Cell extracts were prepared for immunoprecipitation and Western blot analysis as indicated. […] In Panel C, the same extracts were used in IP-kinase assays as indicated. The extent of phosphorylation was quantified and plotted.
(§5) The loss of Skp2-cyclin A/Cdk2 interaction was not due to a reduction in levels of these proteins (FIG. 12B). Importantly, cellular p27 protein levels were not affected by the blocking peptide. […] Here, it is important to point out that although we used p27 as an inhibitor of cyclin A-associated kinase activity in purified kinase reactions with the 4060 blocking peptide shown in FIG. 11, the effects of blocking Skp2-cyclin A interaction on cyclin A-associated kinase activity in cells is unlikely to be mediated by p27 alone. There was no significant interaction between p27 and cyclin A in U2OS cells before and after treatment of TAT-4060. p27 family members p21 and p57, and the pocket proteins p107 and p130 (Adams et al., 1996) may bind and inhibit cyclin A-associated kinase activity through the RxL-HP interaction mechanism. […]

[8] = test system: p27; experiment: Western blot of peptide-treated U2OS cell extracts; type: cell-based, human; conditions: U2OS cells, 50 μM peptide, twelve hours
Method: as §4, §5

[9] = test system: U2OS cells
Method: It is currently unknown how peptide concentrations in the culture media translate into intro-cellular peptide concentrations.
Whether artificial manipulation of Skp2 protein levels in U2OS cells could change the IC50 of various peptides was also investigated.
as §3

[10] = biological target: T4, interaction between cellular Skp2 and cyclin A/Cdk2 (Homo sapiens, UniProt P20248); experiment: Coimmunoprecipitation with cyclin A from peptide-treated U2OS cells; type: cell-based; conditions: 50 μM peptide, twelve hours
T4 construct: endogenous in cells; host or cells: U2OS
Method: as §4, §5

Row | Blocking of Skp2N-cyclin A interaction [1] | Effect of peptide itself on cyclin A/Cdk2 kinase activity towards Rb-C [2] | Blocking of p27-cyclin A interaction [3] | Sequence | WI-38 cells killed [4] | Inhibitory effect on cyclin A/Cdk2 kinase activity ([5]; 1 μM and 10 μM peptide) | Inhibition of cyclin A/Cdk2 kinase activity ([5]; 100 μM peptide) | Peptide concentration required for cell killing [6] | Kinase activity in anti-cyclin A and anti-Cdk2 immune complexes [7] | Cellular p27 protein levels [8] | Concentration of peptide to achieve 40% killing ([9]; U2OS with artificial decrease in Skp2 protein levels (knockdown)) [µM] | Cell killing effectiveness ([9]; U2OS with artificial increase of Skp2 protein levels (overexpression)) | Cell killing effect of single peptide ([9]; U2OS, 1 or 2 μM, 24 hours) | Concentration of peptide to achieve 40% killing ([9]; U2OS, Skp2 levels not manipulated) [µM] | Cell killing effect ([9]; U2OS, twenty four hours after addition of peptides) | IC50 ([9]; read-out: IC50 of cell killing, U2OS, 24 hours, MTS) [µM] | Dissociation of interaction between cellular Skp2 and cyclin A/Cdk2 [10]
1 | but not the Skp2N-cyclin A interaction | inhibited the kinase activity | blocking the p27-cyclin A interaction | SACRNLFG (peptide RxL) [reference compound] | – | – | – | – | – | – | – | – | – | – | – | – | –
2 | – | – | – | YGRKKRRQRRRGKTSELLSGMGVSALEKEE [TAT-4060] | no effect | did not show inhibitory effect | significant inhibition | very high concentrations | clear reduction | not affected | 20 | nearly as ineffective as TAT-Umt | neither TAT-LDL nor TAT-4060 exhibited any cell killing effects | 40 | induced significant cell death | 35 | resulted in dissociation

From patent publication US8173604B2, “Inhibition of Skp2-cyclin a interaction” (Albert Einstein College of Medicine of Yeshiva University, priority 2006, dated 2012)
